Results published in patent US6579882B2, “Cell adhesion-inhibiting antiinflammatory compounds” (Abbott Laboratories, priority 1998, dated 2003).

Experiments:
Format in all cases: cell-based
Conditions in all cases: 1 μM compound, primary human umbilical vein endothelial cells, compound 24 hours, then TNF 5 ng/mL 6 hours; for inhibition at 1 µM: Homo sapiens, Endothelial cell
[1] = test system: ICAM-1; experiment: CAM ELISA: ICAM-1 expression on TNF-stimulated HUVECs
Procedure: (§1) Pooled primary human umbilical vein endothelial cells (HtVEC's) (Clonetics) between passages 3 and 7 were plated in 96-well plates (Costar), 100 μL/well, 5×10^4 cells/mL in Clonetics EBM/2% FBS/EGF/Bovine brain extract/gentamicin in the absence of hydrocortisone. The following day, compounds of the invention were added in 10 μL/well medium, and the plates were incubated at 37° C. 24 hours after compound addition, TNF (Gibco/BRL) in 10 μL/well medium was added to a final concentration of 5 ng/mL, and the cells were incubated an additional 6 hours at 37° C. Then media was removed, and the plates were washed once with D-PBS (Gibco/BRL) and treated with primary antibodies (Becton Dickinson, City), 100 μL/well in D-PBS/2% BSA (Sigma)/0.01% azide. Primary antibodies at an initial concentration of 1 mg/mL were used at the following dilutions: anti-ELAM-1, 1:2000, anti-ICAM-1, 1:2000 and anti-VACM-1, 1:3000. Plates were stored overnight at 4° C., washed 3 times with D-PBS, and treated with secondary antibody (Jackson Labs), 100 μL/well 1:8000 dilution HRP-conjugated donkey anti-mouse IgG(H+L) in D-PBS/2%BSA. Plates were incubated a minimum of 1 hour at room temperature, washed 3 times with D-PBS and treated with 100 μL of orhto-phenylene diamine-2 HCl reagent per well. Plates were developed approximately 15 minutes and neutralized with 100 μL/well 1N sulfuric acid. Absorbance was read at 490 nm.

[2] = test system: VCAM-1; experiment: CAM ELISA: VCAM-1 expression on TNF-stimulated HUVECs
Procedure: as §1

[3] = test system: E-Selectin; experiment: CAM ELISA: E-selectin expression on TNF-stimulated HUVECs
Procedure: as §1

| SMILES | inhibition at 1 µM [1] | inhibition at 1 µM [2] | inhibition at 1 µM [3] | CAM ELISA % Inhibition at 1 μM ICAM-1 [1] | CAM ELISA % Inhibition at 1 μM VCAM-1 [2] | CAM ELISA % Inhibition at 1 μM E-Selectin [3] |
| --- | --- | --- | --- | --- | --- | --- |
| CNC(=O)c1cc2c(Oc3ccc(C(F)(F)F)cc3)cncc2s1 [Example 183, N-Methyl-4-[4-(trifluoromethyl)phenoxy]thieno[2,3-c]pyridine-2-carboxamide] | 69% | 48% | 63% | – | – | – |
| C=C(c1ccccc1)c1cncc2sc(C(N)=O)cc12 [Example 102, 4-(1-phenylethenpl)thieno[2,3-c]pyridine-2-carboxamide] | – | – | – | 68% | 53% | 78% |
| N#Cc1ccc(Oc2cncc3sc(C(N)=O)cc23)cc1 [Example 187, 4-(4-Cyanophenoxy)thieno[2,3-c]pyridine-2-carboxamide] | 72% | 54% | 78% | – | – | – |
| CNC(=O)c1cc2c(Oc3ccc(-n4cccn4)cc3)cncc2s1 [Example 218, N-Methyl-4-[4-(1H-pyrazol-1-yl)phenoxy]thieno[2,3-c]pyridine-2-carboxamide] | 64% | 51% | 66% | – | – | – |
| NC(=O)c1cc2c(C=Cc3ccccc3)cncc2s1 [Example 329, 4-(2-Phenylethenyl)thieno[2,3-c]pyridine-2-carboxamide] | 62% | 64% | 72% | – | – | – |
| NC(=O)c1cc2c(Oc3ccc(Br)cc3)cnc(Cl)c2s1 [Example 316, 4-(4-Bromophenoxy)-7-chlorothieno[2,3-c]pyridine-2-carboxamide] | 68% | 42% | 76% | – | – | – |
| CC(C)OC(=O)OC[n+]1cc(Oc2ccc(Cl)cc2)c2cc(C(N)=O)sc2c1 [Example 233, 2-(Aminocarbonyl)-4-(4-chlorophenoxy)-6-{[(isopropoxycarbonyl)oxy]methyl}thieno[2,3-c]pyridin-6-ium] | – | – | – | 79% | 62% | 74% |
| CNC(=O)c1cc2c(Oc3ccc(-c4noc(C(F)(F)F)n4)cc3)cncc2s1 [Example 220, N-Methyl-4-[4-[5-(trifluoromethyl)-1,2,4-oxadiazol-3-yl]phenoxy]thieno[2,3-c]pyridine-2-carboxamide] | 51% | 32% | 60% | – | – | – |
| CNC(=O)c1cc2c(Oc3ccc(-c4cccs4)cc3)cncc2s1 [Example 222, N-Methyl-4-[4-(2-thienyl)phenoxy]thieno[2,3-c]pyridine-2-carboxamide] | 42% | 44% | 40% | – | – | – |
| CNC(=O)c1cc2c(Oc3ccc(/C=C/C(=O)NCCN4CCOCC4)cc3)cncc2s1 [Example 210] | – | – | – | 58% | 42% | 64% |
| CC(C)(C)OC(=O)Nc1csc(-c2cc3c(Oc4ccc(Cl)cc4)cncc3s2)n1 [Example 294, tert-Butyl 2-[4-(4-Chlorophenoxy)thieno[2,3-c]pyridin-2-yl]-1,3-thiazol-4-ylcarbamate] | 45% | 24% | 46% | – | – | – |
| COc1ccccc1-c1cc2c(Oc3ccc(Cl)cc3)cncc2s1 [Example 124, 4-(4-chlorophenoxy)-2-(2-methoxyphenyl)thieno[2,3-c]pyridine] | 29% | 26% | 18% | – | – | – |
| OCC(O)c1cc2c(Oc3ccc(Cl)cc3)cncc2s1 (stereo not drawn) [Example 254, 1-[4-(4-Chlorophenoxy)thieno[2,3-c]pyridin-2-yl]-1,2-ethanediol] | 28% | 24% | 24% | – | – | – |
| OCC(O)c1cc2c(Oc3ccc(Br)cc3)cncc2s1 (stereo not drawn) [Example 255, 1-[4-(4-Bromophenoxy)thieno[2,3-c]pjridin-2-yl]-1,2-ethanediol] | – | – | – | 65% | 19% | 67% |
| Nc1nnc(-c2cc3c(Oc4ccc(Cl)cc4)cncc3s2)o1 [Example 275, 5-[4-(4-Chlorophenoxy)thieno[2,3-c]pyridin-2-yl]-1,3,4-oxadiazol-2-amine] | 72% | 64% | 73% | – | – | – |
| Cc1occc1Sc1cncc2sc(C(N)=O)cc12 [Example 53, 4-[(2-methyl-3-fiuranyl)thio]thieno[2,3-c]piridine-2-carboxamide] | – | – | – | 67% | 48% | 70% |

| SMILES | inhibition at 1 µM [1] | inhibition at 1 µM [2] | inhibition at 1 µM [3] | CAM ELISA % Inhibition at 1 μM ICAM-1 [1] | CAM ELISA % Inhibition at 1 μM VCAM-1 [2] | CAM ELISA % Inhibition at 1 μM E-Selectin [3] |
| --- | --- | --- | --- | --- | --- | --- |
| CNC(=O)c1cc2c(Oc3ccc(C4(CO)CC4)cc3)cncc2s1 [Example 225, 4-{4-[1-(Hydroxymethyl)cyclopropyl]phenoxy}-N-methylthieno[2,3-c]pyridine-2-carboxamide] | 78% | 60% | 75% | – | – | – |
| Nc1nnc(-c2cc3c(Oc4ccc(Br)cc4)cncc3s2)o1 [Example 276, 5-[4-(4-Bromophenoxy)thieno[2,3-c]pyridin-2-yl]-1,3,4-oxadiazol-2-ylamine] | 61% | 52% | 66% | – | – | – |
| Cc1c(C(N)=O)sc2cncc(Oc3ccc(Cl)cc3)c12 [Example 125, 4-(4-Chlorolphenoxy)-3-methylthienol[2,3-c]pyridine-2-carboxamide] | – | – | – | 69% | 44% | 72% |
| CN(C)C(=O)c1cc2c(Oc3ccc(Cl)cc3)cncc2s1 [Example 104, 4-(4-chlorophenoxy)-N,N-dimethylthieno[2,3-c]pyridine-2-carboxamide] | 72% | 53% | 78% | – | – | – |
| Nc1nnc(-c2cc3c(Oc4ccc(C(F)(F)F)cc4)cncc3s2)o1 [Example 280, 5-{4-[4-(Trifluoromethyl)phenoxy]thieno[2,3-c]pyridin-2-yl}-1,3,4-oxadiazol-2-amine] | 77% | 69% | 73% | – | – | – |
| Cc1ccc(Sc2ccnc3cc(C(N)=O)sc23)cc1 [Example 135, 7-[(4-methylphenyl)thio]thieno[3,2-b]pyridine-2-carboxamide] | 22% | 34% | 29% | – | – | – |
| CNC(=O)c1cc2c(Oc3ccc(C(C)=O)cc3)cncc2s1 [Example 202, 4-(4-Acetylphenoxy)-N-methylthieno[2,3-c]pyridine-2-carboxamide] | 68% | 49% | 80% | – | – | – |
| CNC(=O)c1cc2c(Oc3ccc(-c4cncn4C)cc3)cncc2s1 [Example 224, N-Methyl-4-[4-(1-methyl-1H-imidazol-5-yl)phenoxy]thieno[2,3-c]pyridine-2-carboxamide] | 55% | 41% | 61% | – | – | – |
| NC(=O)c1cc2c(OCc3ccccc3)cncc2s1 [Example 236, 4-(Benzyloxy)thieno[2,3-c]pyljdine-2-carboxamide] | – | – | – | 59% | 33% | 59% |
| CSc1nnc(-c2cc3c(Oc4ccc(Cl)cc4)cncc3s2)o1 [Example 281] | – | – | – | 25% | 20% | 18% |
| NC(=O)c1cc2c(Oc3ccc(-n4ccnc4)cc3)cncc2s1 [Example 217, 4-[4-(1H-Imidazol-1-yl)phenoxy]thieno[2,3-c]pyridine-2-carboxamide] | 63% | 42% | 64% | – | – | – |
| NC(=O)c1cc2c(Oc3ccc(Cl)cc3)cnc(Cl)c2s1 [Example 311, 7-Chloro-4-(4-chlorophenoxy)thieno[2,3-c]pyridine-2-carboxamide] | 77% | 36% | 72% | – | – | – |
| CN1CCN(C(=O)c2cc3c(Oc4ccc(Cl)cc4)cncc3s2)CC1 [Example 110, 1-[[4-(4-chlorophenoxy)thieno[2,3-c]pyridin-2-yl]carbonyl]-4-methylpiperazine] | 48% | 39% | 44% | – | – | – |
| NC(=O)c1cc2c(Oc3ccc(Cl)cc3)c(Cl)ncc2s1 [Example 340, 5-Chloro-4-(4-chlorophenoxy)thieno[2,3-c]pyridine-2-carboxamide] | 33% | 20% | 18% | – | – | – |
| CNC(=O)C(O)C(O)c1cc2c(Oc3ccc(Br)cc3)cncc2s1 (stereo not drawn) [Example 261, Methyl 3-[4-(4-Bromophenoxy)thieno[2,3-c]pyridin-2-yl]-2,3-dihydroxypropanamide] | 16% | 0% | 20% | – | – | – |
| O=C(O)CNC(=O)c1cc2c(Oc3ccc(Cl)cc3)cncc2s1 [Example 159] | – | – | – | 45% | 13% | 30% |
